Legend:
[1] = system: VEGF-induced edema; test: Miles assay, VEGF-induced edema; type: in vivo, Sprague-Dawley rats; details: general statement in description
Procedure: A rodent model of vascular edema, the Miles assay, was used to screen compounds for their ability to inhibit VEGF-induced edema.
Sprague-Dawley rats were first injected IV with vehicle alone or test agent, followed by IV injection of Evans blue dye, followed by intradermal injections of saline and VEGF (200 ng/injection site) along both shaved flanks. After 45 min, intradermal injection sites were photographed and then scored by a blinded observer for extravasation of Evans blue dye into the dermis (dermal bluing) according to a 4 point scoring system (3=maximal bluing, ≧75% of response in vehicle-treated animals; 2=medium bluing, >25% but <75% of vehicle-treated animals; 1=minimal bluing, ≦25% of vehicle-treated animals; 0=bluing equivalent to saline injection sites on same animal). Individual scores for 4 injection sites (from 2 separate animals) were summed and are shown as a scale of 0-12, with a lower score indicating the greater anti-edema activity; note that all vehicle-treated groups score a value of 12, based on the scoring system outlined above.

[2] = system: acute myocardial infarct; test: Rat acute myocardial infarct model (60 min LAD occlusion, reperfusion); type: in vivo, Sprague-Dawley rats; details: rat
Procedure: A rodent model of acute myocardial infarct, in which the proximal left anterior descending coronary artery (LAD) is occluded for 60 min followed by reperfusion, was used to determine whether test agents reduced infarct size at 24 hours.
Myocardial infarcts were created in Sprague-Dawley rats (200-300 g body weight) by a 60 min occlusion of the LAD followed by LAD reperfusion. At 90 min post-reperfusion, either vehicle alone or test agents were injected IV. At 24 hr post-treatment, the ischemic zone (area at-risk, AAR) was delineated by re-ligation of the LAD followed by IV injection of alkali blue dye, after which hearts were sectioned along the short axis and stained using triphenyltetrazolium chloride to delineate viable from infarcted myocardium. Photographic images were then analyzed using morphometric software to calculate infarct area as a percent of the at-risk area.
The following studies were performed as described above, except that the timing of 3-[2,4-diamino-6-(3-hydroxyphenyl)pteridin-7-yl] phenol dihydrochloride salt administration (at 0.1 mg/kg) was varied. In one group, 3-[2,4-diamino-6-(3-hydroxyphenyl)pteridin-7-yl] phenol dihydrochloride salt was administered at both 60 and 240 min post-occlusion.
In a porcine MI model (90 min of LAD occlusion followed by complete reperfusion), a single 0.3 mg/kg IV bolus delivered 30 min post-reperfusion reduced infarct size by […] vs. controls (40% vs. 56%, N=12-13, P=0.03).

[3] = target: T1, human p120γ subunit of PI3K (Homo sapiens, UniProt P48736); test: PI3K p120γ enzymatic activity at two concentrations (Upstate Group); type: biochemical; details: 100% = no inhibition, 0% = complete inhibition
T1 construct: Upstate Group, Charlottesville, Va; (ran the assay under contract)
Procedure: The ability of compounds to inhibit the activity of PI3K kinase was determined using biochemical assays. In a first assay, compounds were tested at two concentrations (0.5 and 5 μM) for their ability to inhibit enzymatic activity of the human p120γ subunit of PI3K (the assay being performed under contract by Upstate Group, Charlottesville, Va.).

[4] = system: VEGF-induced Akt kinase phosphorylation; test: VEGF-induced Akt phosphorylation in lung, Western blot; type: in vivo, Sprague Dawley rats
Procedure: The ability of compounds to impact PI3K activity in vivo was assessed by examining compound influence on vascular endothelial growth factor (VEGF)-induced Akt kinase phosphorylation (VEGF stimulation being an inducer of PI3K activity, and Akt kinase being a direct target of PI3K). Sprague Dawley rats were first injected intravenously (iv) with either vehicle or test compound at 5 mgfkg, and then 30, 60 or 120 min later injected iv with VEGF. Five minutes later, lungs were harvested and used to generate tissue lysates, which were then probed for phosphorylated Akt using Western blot technology; non-phosphorylated Akt was also probed in the same blots as a loading control. In other studies, test compounds was dosed at either 0.5 or 5 mg/kg, and VEGF delivered 60 min later, in order to assess the dose-response relationship of a compound's activities.

[5] = system: dextran-induced inflammatory edema; test: Dextran-induced paw inflammatory edema; type: in vivo, Sprague Dawley rats; details: 5 mg/kg iv 30 min before dextran; 3 hours
Procedure: (§1) In order to determine the influence of compounds on the development of inflammation, Sprague Dawley rats were first injected intravenously with either vehicle or test compound at 5 mg/kg, and then 30 min later either PBS (as a control), dextran or platelet activating factor (PAF) was injected into the plantar surface of the hindlimbs, dextran and PAF being known to induce localized inflammatory responses marked by edema. Three hours later, paw dimensions were measured using a caliper and paw volumes calculated; data are shown as the increase in paw volume (mm^3) as compared to controls (paws injected with PBS).

[6] = system: PAF-induced inflammatory edema; test: PAF-induced paw inflammatory edema; type: in vivo, Sprague Dawley rats; details: 5 mg/kg iv 30 min before PAF; 3 hours
Procedure: as §1

[7] = system: B 16 melanoma cells; test: B16 melanoma lung metastases, effect on IL-2 anti-tumor activity; type: in vivo, C57 mice; details: 100,000 U IL-2 and/or compound I.P. every 8 hours for 5 days; compound D 1 mg/kg range, compound E 0.1 mg/kg range
Procedure: Invention compound concentrations are listed in parenthesis in mg/kg while IL-2 concentration is given in parenthesis kilounits.
Syngeneic B 16 melanoma cells were injected I.V. in order to establish lung metastases in C57 mice. Beginning 10 days after cells were injected, 100,000 U of IL-2 and/or indicated invention compounds were given I.P. every 8 hours for 5 days. Animals were sacrificed at day 18, lungs were collected and scored using image analysis software. N=5/group, p<0.02. […] Invention compound concentrations are listed in parenthesis in mg/kg while IL-2 concentration is given in parenthesis kilounits.

[8] = system: CTLL2; test: IL-2 dependent T-cell proliferation, XTT assay; type: cell-based, mouse; details: 96 hours, 50 pg human recombinant IL-2; compound E: in the therapeutic range (<1 μM)
Procedure: An IL-2 dependent […] T cell line, CTLL2, was used to evaluate IL-2 dependent proliferation over 96 hours in the presence of 50 pg of human recombinant IL-2 (R&D Systems) and the indicated compounds using the XTT assay.

[9] = system: ARDS-induced edema; test: Oleic acid induced ARDS lung edema, wet/dry weight; type: in vivo, NIH Swiss mice; details: 1.5 mg/kg oleic acid i.p., 4 hours; compound in the 0.5 mg/kg range
Procedure: FIG. 12 illustrates the effects of invention compounds for their capacity to inhibit edema associated with Acute Respiratory Distress Syndrome (ARDS). NIH Swiss mice were given an intraperitoneal injection of 1.5 mg/kg Oleic Acid of (in this example formulated in saline) and/or invention compounds.
NIH Swiss mice were given an intraperitoneal injection of 1.5 mg/kg Oleic Acid of (in this example formulated in saline) and/or invention compounds.

T1 sequence (P48736 whole entry): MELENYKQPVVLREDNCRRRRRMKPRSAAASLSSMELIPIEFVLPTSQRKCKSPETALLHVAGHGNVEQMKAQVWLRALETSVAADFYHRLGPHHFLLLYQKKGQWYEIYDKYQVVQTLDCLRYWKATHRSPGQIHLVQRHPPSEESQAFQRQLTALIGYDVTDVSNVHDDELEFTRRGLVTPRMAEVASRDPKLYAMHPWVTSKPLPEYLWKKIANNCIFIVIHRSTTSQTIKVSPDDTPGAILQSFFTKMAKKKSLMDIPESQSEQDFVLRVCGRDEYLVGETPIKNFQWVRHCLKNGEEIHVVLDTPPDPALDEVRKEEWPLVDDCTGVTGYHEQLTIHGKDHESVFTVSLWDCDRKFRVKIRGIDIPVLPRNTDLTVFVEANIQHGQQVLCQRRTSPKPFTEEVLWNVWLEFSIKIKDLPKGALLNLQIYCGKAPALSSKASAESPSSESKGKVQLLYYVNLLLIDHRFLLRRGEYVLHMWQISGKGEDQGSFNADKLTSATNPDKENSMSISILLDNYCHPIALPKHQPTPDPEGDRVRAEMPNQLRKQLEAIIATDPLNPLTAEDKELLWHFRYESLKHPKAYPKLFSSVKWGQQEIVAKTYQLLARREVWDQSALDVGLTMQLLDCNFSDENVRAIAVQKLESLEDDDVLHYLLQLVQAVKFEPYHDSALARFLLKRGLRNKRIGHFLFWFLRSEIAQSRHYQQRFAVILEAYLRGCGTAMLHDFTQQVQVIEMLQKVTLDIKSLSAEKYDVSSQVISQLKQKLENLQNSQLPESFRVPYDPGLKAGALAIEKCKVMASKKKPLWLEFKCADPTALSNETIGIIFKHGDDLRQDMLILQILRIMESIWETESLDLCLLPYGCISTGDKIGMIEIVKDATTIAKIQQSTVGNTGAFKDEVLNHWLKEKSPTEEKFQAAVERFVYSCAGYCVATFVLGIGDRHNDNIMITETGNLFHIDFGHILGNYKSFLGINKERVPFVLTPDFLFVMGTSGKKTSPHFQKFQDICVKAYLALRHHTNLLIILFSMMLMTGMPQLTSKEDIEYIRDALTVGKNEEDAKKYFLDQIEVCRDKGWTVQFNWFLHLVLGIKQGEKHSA

SMILES | inhibition of edema formation in VEGF-treated animals [1] | infarct area as percentage of ischemic territory (mean±SD) ([2]; 0.3 mg/kg IV bolus 60 min into reperfusion, 24 hr, vehicle 62%±7) | infarct reduction with varied dosing time ([2]; dosing immediately at reperfusion or out to 3 hr later) | remaining activity at 0.5 µM ([3]; 0.5 μM, read-out: Percent Control Value at 0.5 μM) | remaining activity at 5 µM ([3]; 5 μM, read-out: Percent Control Value at 5 μM) | Inhibition of VEGF-induced Akt phosphorylation, time course ([4]; 5 mg/kg iv, VEGF 30, 60 or 120 min later, lung lysates) | Inhibition of VEGF-induced Akt phosphorylation, dose-response ([4]; 0.5 or 5 mg/kg iv, VEGF 60 min later, lung lysates) | blockade of Akt phosphorylation following VEGF delivery ([4]; general statement in description) | dextran-induced increase in paw volume [5] | PAF-induced increase in paw volume [6] | impact on the anti-tumor activity of IL-2 [7] | impact on IL-2 induced T-cell proliferation [8] | reduction of ARDS-induced edema [9]
Nc1nc(N)c2nc(-c3cccc(O)c3)c(-c3cccc(O)c3)nc2n1 [6,7-bis-(3-hydroxyphenyl)-pteridine-2,4-diamine] | inhibit edema formation in VEGF-treated animals | 35% | Equivalent infarct reductions | 47% | 5% | Inhibition of VEGF-induced Akt phosphorylation was seen at all time-points examined | at all 6,7-bis-(3-hydroxyphenyl)-pteridine-2,4-diamine doses examined | blockade of Akt phosphorylation | blocked these responses | blocked these responses | – | – | –
O=C(O)c1ccccc1C(=O)Nc1ccccc1-c1cc2ccccc2[nH]1 [compound D] | – | – | – | – | – | – | – | – | – | – | no significant impact | no significant impact | –
Nc1nc(N)c2nc(-c3cccc(O)c3)c(-c3cccc(O)c3)nc2n1.O=S(=O)(O)O [compound E] | – | – | – | – | – | – | – | – | – | – | no significant impact | no significant impact | > 50%

— US20050282814A1, “Vasculostatic agents and methods of use thereof” (TargeGen, Inc., priority 2002, published 2005)
